≈ marks a conversion by molar mass, not a printed value. Read-outs that look alike come from different tables or passages of the source.
What was measured:
Type in all cases: cell-based
[1] = test system: P. rettgeri CAP; assay: Broth microdilution MIC, reference strains; settings: Providencia rettgeri; P. rettgeri (CAP in Table 1); read-out: MIC (growth inhibition, microdilution method)
Source text: (§1) All clinical isolates tested were from The North American Urinary Tract Infection Collaborative Alliance (NAUTICA) which is a UTI surveillance study involving 40 medical centres (30 from the US and 10 from Canada). Each centre submitted up to 50 consecutive outpatient midstream urine isolates. All isolates were deemed significant urinary tract pathogens by individual laboratory criteria and identified to the species level by each laboratory's existing protocol. Isolates were transported to the coordinating laboratory (Health Sciences Centre, Winnipeg, Canada) on charcoal swabs. Only one isolate per patient was accepted. Upon receipt, isolates were cultured by the coordinating laboratory, stocked in skim milk, and stored at −80° C. awaiting reference antibiotic susceptibility testing. Elementary demographic information was also compiled for each isolate. Isolates were selected randomly from the above pool to represent 18 different species of Enterobacteriaceae and non-Enterobacteriaceae. An average of 5 strains of each species were tested for a total of 93 organisms. In addition, 23 reference (ATCC) [both gram negative and gram positive] strains were tested.
(§2) Susceptibilities to the compounds were determined using the National Committee for Clinical Laboratory Standards (NCCLS) M7-A6 broth microdilution method. […] DMSO controls were incorporated into the panel to mimic the quantity of DMSO used in dissolving some of the compounds at the higher concentrations. Each final panel well volume was 100 μl with a bacterial inoculum of 5×10^5 colony forming units (CFU)/ml. Panels were read following 16 to 20 hours of incubation at 35° C. in ambient air. The minimum inhibitory concentration (MIC) was defined as the lowest concentration of antimicrobial inhibiting visible growth. Quality control (QC) was performed using four ATCC QC organisms that were run with every batch set up to insure reproducibility.

[2] = test system: E. faecalis ATCC 29212; assay: Broth microdilution MIC, ATCC strains; settings: Enterococcus faecalis, read-out: MIC (growth inhibition, microdilution method)
Source text: as §1, §2

[3] = test system: K. oxytoca ATCC 49131; assay: Broth microdilution MIC, ATCC strains; settings: Klebsiella oxytoca, ATCC49131; K. oxytoca ATCC 49131; read-out: MIC (growth inhibition, microdilution method)
Source text: as §1, §2

[4] = test system: E. cloacae ATCC 23355; assay: Broth microdilution MIC, ATCC strains; settings: Enterobacter cloacae, ATCC23355; E. cloacae ATCC 23355; read-out: MIC (growth inhibition, microdilution method)
Source text: as §1, §2

[5] = test system: MRSA ATCC 33591; assay: Broth microdilution MIC, ATCC strains; settings: Staphylococcus aureus; MRSA ATCC 33591; read-out: MIC (growth inhibition, microdilution method)
Source text: as §1, §2

[6] = test system: S. epidermidis ATCC 14990; assay: Broth microdilution MIC, ATCC strains; settings: Staphylococcus epidermidis, ATCC14990; S. epidermidis ATCC 14990; read-out: MIC (growth inhibition, microdilution method)
Source text: as §1, §2

[7] = test system: A. anitratus ATCC 19606; assay: Broth microdilution MIC, ATCC strains; settings: Acinetobacter calcoaceticus, ATCC19606; A. anitratus ATCC 19606; read-out: MIC (growth inhibition, microdilution method)
Source text: as §1, §2

[8] = test system: S. aureus ATCC 29213; assay: Broth microdilution MIC, ATCC strains; settings: Staphylococcus aureus, ATCC29213, S. aureus ATCC 29213; read-out: MIC (growth inhibition, microdilution method)
Source text: as §1, §2

[9] = test system: S. marcescens ATCC 8100; assay: Broth microdilution MIC, ATCC strains; settings: Serratia marcescens, ATCC8100; S. marcescens ATCC 8100; read-out: MIC (growth inhibition, microdilution method)
Source text: as §1, §2

[10] = test system: Ps. aeruginosa ATCC 27853; assay: Broth microdilution MIC, ATCC strains; settings: Pseudomonas aeruginosa, ATCC27853; Ps. aeruginosa ATCC 27853; read-out: MIC (growth inhibition, microdilution method)
Source text: as §1, §2

[11] = test system: S. simulans ATCC 27848; assay: Broth microdilution MIC, ATCC strains; settings: Staphylococcus simulans, ATCC27848, read-out: MIC (growth inhibition, microdilution method)
Source text: as §1, §2

[12] = test system: P. mirabilis ATCC 29245; assay: Broth microdilution MIC, ATCC strains; settings: Proteus mirabilis, ATCC29245; P. mirabilis ATCC 29245; read-out: MIC (growth inhibition, microdilution method)
Source text: as §1, §2

[13] = test system: S. maltophilia ATCC 13637; assay: Broth microdilution MIC, ATCC strains; settings: Stenotrophomonas maltophilia, ATCC13637; S. maltophilia ATCC 13637; read-out: MIC (growth inhibition, microdilution method)
Source text: as §1, §2

[14] = test system: S. liquefaciens ATCC 27592; assay: Broth microdilution MIC, ATCC strains; settings: S. liquefaciens ATCC 27592; read-out: MIC (growth inhibition, microdilution method)
Source text: as §1, §2

[15] = test system: E. aerogenes ATCC 13048; assay: Broth microdilution MIC, ATCC strains; settings: Klebsiella aerogenes, ATCC13048; E. aerogenes ATCC 13048; read-out: MIC (growth inhibition, microdilution method)
Source text: as §1, §2

[16] = test system: E. faecium ATCC 35667; assay: Broth microdilution MIC, ATCC strains; settings: Enterococcus faecium, ATCC35667, read-out: MIC (growth inhibition, microdilution method)
Source text: as §1, §2

[17] = test system: B. cepacia ATCC 25416; assay: Broth microdilution MIC, ATCC strains; settings: Burkholderia cepacia, ATCC25416; B. cepacia ATCC 25416; read-out: MIC (growth inhibition, microdilution method)
Source text: as §1, §2

[18] = test system: S. warneri ATCC 27836; assay: Broth microdilution MIC, ATCC strains; settings: Staphylococcus warneri, ATCC27836; S. warneri ATCC 27836; read-out: MIC (growth inhibition, microdilution method)
Source text: as §1, §2

[19] = test system: S. saprophyticus ATCC 15305; assay: Broth microdilution MIC, ATCC strains; settings: Staphylococcus saprophyticus, ATCC15305; S. saprophyticus ATCC 15305; read-out: MIC (growth inhibition, microdilution method)
Source text: as §1, §2

[20] = test system: P. vulgaris ATCC 49132; assay: Broth microdilution MIC, ATCC strains; settings: Proteus vulgaris, ATCC49132; P. vulgaris ATCC 49132; read-out: MIC (growth inhibition, microdilution method)
Source text: as §1, §2

[21] = test system: E. coli ATCC 25922; assay: Broth microdilution MIC, ATCC strains; settings: Escherichia coli, ATCC25922, E. coli ATCC 25922; read-out: MIC (growth inhibition, microdilution method)
Source text: as §1, §2

[22] = test system: Pr. stuartii ATCC 33672; assay: Broth microdilution MIC, ATCC strains; settings: Providencia stuartii, ATCC33672; Pr. stuartii ATCC 33672; read-out: MIC (growth inhibition, microdilution method)
Source text: as §1, §2

[23] = test system: K. pneumoniae ATCC 13883; assay: Broth microdilution MIC, ATCC strains; settings: Klebsiella pneumoniae, ATCC13883; K. pneumoniae ATCC 13883; read-out: MIC (growth inhibition, microdilution method)
Source text: as §1, §2

[24] = test system: E. aerogenes clinical isolates; assay: Broth microdilution MIC, clinical isolate strains (NAUTICA); settings: clinical isolates, one table line per isolate; unit assumed
Source text: as §1, §2

[25] = test system: S. maltophilia clinical isolates; assay: as above; settings: clinical isolates, one table line per isolate; unit assumed
Source text: as §1, §2

[26] = test system: M. morganii clinical isolates; assay: as above; settings: clinical isolates, one table line per isolate; unit assumed
Source text: as §1, §2

[27] = test system: S. liquifaciens clinical isolates; assay: as above; settings: clinical isolates, one table line per isolate; unit assumed
Source text: as §1, §2

[28] = test system: A. baumanii clinical isolates; assay: as above; settings: clinical isolates, one table line per isolate; unit assumed
Source text: as §1, §2

[29] = test system: S. marcescens clinical isolates; assay: as above; settings: clinical isolates, one table line per isolate; unit assumed
Source text: as §1, §2

[30] = test system: C. koseril clinical isolates; assay: as above; settings: clinical isolates, one table line per isolate; unit assumed
Source text: as §1, §2

[31] = test system: B. cepacia clinical isolates; assay: as above; settings: clinical isolates, one table line per isolate; unit assumed
Source text: as §1, §2

[32] = test system: E. cloacae clinical isolates; assay: as above; settings: clinical isolates, one table line per isolate; unit assumed
Source text: as §1, §2

[33] = ATCC29212, E. faecalis ATCC 29212
[34] = ATCC29212, E. faecalis, ATCC number not given

| SMILES | MIC [1] [µg/mL] | MIC [2, 33] [µg/mL] | MIC [2, 34] [µg/mL] | MIC [3] [µg/mL] | MIC [4] [µg/mL] | MIC [5] [µg/mL] | MIC [6] [µg/mL] | MIC [7] [µg/mL] | MIC [8] [µg/mL] | MIC [9] [µg/mL] | MIC [10] [µg/mL] | MIC [11] [µg/mL] | MIC [12] [µg/mL] | MIC [13] [µg/mL] | MIC [14] [µg/mL] | MIC [15] [µg/mL] | MIC [16] [µg/mL] | MIC [17] [µg/mL] | MIC [18] [µg/mL] | MIC [19] [µg/mL] | further results |
| --- | --- | --- | --- | --- | --- | --- | --- | --- | --- | --- | --- | --- | --- | --- | --- | --- | --- | --- | --- | --- | --- |
| Cn1nnnc1-c1cc(C(=O)O)sc1C(=O)O [DNM-113, 3-(1-Methyl-1H-tetrazol-5-yl)-thiophene-2,5-dicarboxylic acid] | 8 (≈ 31.5 µM) | 8 (≈ 31.5 µM) | 8 (≈ 31.5 µM) | 8 (≈ 31.5 µM) | 8 (≈ 31.5 µM) | 64 (≈ 252 µM) | 8 (≈ 31.5 µM) | 8 (≈ 31.5 µM) | 32 (≈ 126 µM) | 8 (≈ 31.5 µM) | 8 (≈ 31.5 µM) | 32 (≈ 126 µM) | 16 (≈ 62.9 µM) | 8 (≈ 31.5 µM) | 8 (≈ 31.5 µM) | 8 (≈ 31.5 µM) | 8 (≈ 31.5 µM) | 8 (≈ 31.5 µM) | 16 (≈ 62.9 µM) | 8 (≈ 31.5 µM) | MIC [20]: 16 µg/mL (≈ 62.9 µM); MIC [21]: 8 µg/mL (≈ 31.5 µM); MIC [22]: 16 µg/mL (≈ 62.9 µM); MIC [23]: 8 µg/mL (≈ 31.5 µM); MIC, E. AEROGENES [24]: 8 µg/mL (≈ 31.5 µM); MIC, S. MALTOPHILIA [25]: 8 µg/mL (≈ 31.5 µM); MIC, M. MORGANII [26]: 8 µg/mL (≈ 31.5 µM); MIC, S. LIQUEFACIENS [27]: 8 µg/mL (≈ 31.5 µM); MIC, A. BAUMANII [28]: 8 µg/mL (≈ 31.5 µM); MIC, S. MARCESCENS [29]: 8 µg/mL (≈ 31.5 µM); MIC, C. KOSERI [30]: 8 µg/mL (≈ 31.5 µM); MIC, B. CEPACIA [31]: 8 µg/mL (≈ 31.5 µM) |
| COC(=O)c1cc(-c2nnnn2C)c(C(=O)OC)s1 [DNM-115, 3-(1-Methyl-1H-tetrazol-5-yl)-thiophene-2,5-dicarboxylic acid dimethyl ester] | 16 (≈ 56.7 µM) | 8 (≈ 28.3 µM) | 8 (≈ 28.3 µM) | 8 (≈ 28.3 µM) | > 16 | > 16 | 8 (≈ 28.3 µM) | 8 (≈ 28.3 µM) | > 16 | 8 (≈ 28.3 µM) | 8 (≈ 28.3 µM) | > 16 | 16 (≈ 56.7 µM) | 8 (≈ 28.3 µM) | 8 (≈ 28.3 µM) | 8 (≈ 28.3 µM) | 8 (≈ 28.3 µM) | 8 (≈ 28.3 µM) | > 16 | 8 (≈ 28.3 µM) | MIC [20]: 16 µg/mL (≈ 56.7 µM); MIC [21]: 8 µg/mL (≈ 28.3 µM); MIC [22]: > 16 µg/mL; MIC [23]: 8 µg/mL (≈ 28.3 µM); MIC, S. MALTOPHILIA [25]: 8 µg/mL (≈ 28.3 µM); MIC, A. BAUMANII [28]: 8 µg/mL (≈ 28.3 µM); MIC, E. CLOACAE [32]: > 16 µg/mL; MIC, B. CEPACIA [31]: 8 µg/mL (≈ 28.3 µM) |

— patent US8835476B2, “Synthesis of novel antimicrobials” (priority 2005, dated 2014)
